In ChEMBL document CHEMBL3758164, “Identification of new SUMO activating enzyme 1 inhibitors using virtual screening and scaffold hopping” (Bioorg Med Chem Lett, 2016):

How the values were obtained:
[1] = target: T1, SUMO-activating enzyme subunit 1 (Homo sapiens) (UniProt Q9UBE0); assay: Inhibition of recombinant GST-fused SUMO E1 (unknown origin) using RanGAP1 as substrate at 100 uM after 2 hrs by immunoblot analysis; details: values are per cent of control
T1 sequence (whole entry): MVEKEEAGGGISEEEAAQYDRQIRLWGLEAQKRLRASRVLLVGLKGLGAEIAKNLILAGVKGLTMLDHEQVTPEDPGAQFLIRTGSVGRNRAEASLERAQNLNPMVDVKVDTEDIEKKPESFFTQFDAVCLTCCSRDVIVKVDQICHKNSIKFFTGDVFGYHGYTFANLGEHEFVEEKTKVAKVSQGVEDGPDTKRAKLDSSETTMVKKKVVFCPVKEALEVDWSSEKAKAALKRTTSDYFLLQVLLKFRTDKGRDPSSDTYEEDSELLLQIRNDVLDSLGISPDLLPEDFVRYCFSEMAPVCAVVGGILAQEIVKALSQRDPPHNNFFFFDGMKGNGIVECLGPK

[2] = target: T1, SUMO-activating enzyme subunit 1 (Homo sapiens); assay: Inhibition of recombinant GST-fused SUMO E1 (unknown origin) using RanGAP1 as substrate at 20 uM after 2 hrs by immunoblot analysis; details: values are per cent of control
[3] = target: T2, SUMO-activating enzyme subunit 1 (Homo sapiens, UniProt Q9UBE0); assay: (§1) Inhibition of recombinant GST-fused SUMO E1 (unknown origin) using RanGAP1 as substrate after 2 hrs by immunoblot analysis
T2 sequence (Q9UBE0 whole entry): T1 sequence (whole entry)

[4] = target: T1, SUMO-activating enzyme subunit 1 (Homo sapiens); assay: as §1

SMILES | residual activity [1] [%] | residual activity [2] [%] | IC50 [3] [µM] | inhibition [4]
COc1ccc(NC(=O)Nc2cc(C)nn2C2CCCC2)cc1 | 103 | 93.7 | – | –
COc1ccc(NC(=O)Nc2nc(C)c(C(C)=O)s2)cc1 | 93.3 | 105 | – | –
COc1cc(NC(=O)Nc2nc(-c3ccc(Cl)s3)cs2)cc(OC)c1OC | 0.01 | 60.8 | – | –
CCc1cc(=O)[nH]c(-n2nc(-c3ccccc3)cc2NC(=O)Nc2ccc(OC)cc2)n1 | 11.8 | 65.6 | – | –
COc1cc(C)ccc1NC(=O)Nc1cn(-c2ccccc2)nc1-c1ccc(OC)c(OC)c1 | 57.5 | 88.9 | – | –
O=C(Nc1ccc(OCc2ccccc2)cc1)Nc1cc(-c2ccccc2)nn1-c1ccccc1 | 13.3 | 86.3 | – | –
COc1cccc(NC(=O)Nc2cc(C)nn2-c2ccc(F)cc2)c1 | 96.4 | 96 | – | –
CCc1c(C)nc(-n2nc(C)cc2NC(=O)Nc2cccc(OC)c2)[nH]c1=O | 103 | 98.1 | – | –
CCc1cc(=O)[nH]c(-n2nc(-c3ccccc3)cc2NC(=O)Nc2cc(OC)cc(OC)c2)n1 | 26.8 | 82.3 | – | –
COc1cc(NC(=O)Nc2nc3cc(C)c(C)cc3s2)cc(OC)c1OC | 96 | 94.8 | – | –
COc1ccc(NC(=O)Nc2ccc(Oc3ncnc4cc(Cl)ccc34)nc2)cc1OC1CCCC1 | – | – | 13.4 | –
COc1cc(NC(=O)Nc2nc(-c3cc4ccccc4o3)cs2)cc(OC)c1OC | 45.3 | 76.8 | – | –
COc1ccccc1NC(=O)Nc1cc(C(C)(C)C)nn1C | 95.2 | 102 | – | –
COc1cc(NC(=O)Nc2nc3c(OC)ccc(C)c3s2)cc(OC)c1OC | 83.5 | 99.3 | – | –
Cn1nc(-c2ccc(Cl)cc2)cc1NC(=O)Nc1ccc(OCc2ccccc2)cc1 | 1.99 | 73.4 | – | –
CCOC(=O)c1sc(NC(=O)Nc2ccc(Cl)c(Cl)c2)nc1C | 0.7 | 53.8 | – | –
COc1cccc(NC(=O)Nc2nc(C)c(C(C)=O)s2)c1 | 91.9 | 96.6 | – | –
COc1cc(NC(=O)Nc2cc(-c3ccccc3)nn2-c2nc(C)cc(=O)[nH]2)cc(OC)c1 | 16 | 57.5 | 73 | –
COc1ccc(NC(=O)Nc2nc(-c3ccccc3)c(C(C)=O)s2)cc1OC | 13.7 | 86 | – | –
CCc1cc(=O)[nH]c(-n2nc(-c3ccccc3)cc2NC(=O)Nc2ccc3c(c2)OCO3)n1 | 5.69 | 36.7 | > 100 | –
COc1cccc(NC(=O)Nc2cc(C)nn2C2CCCC2)c1 | 101 | 100 | – | –
COc1cc(NC(=O)Nc2nc(-c3nc4ccccc4s3)cs2)cc(OC)c1OC | 3.96 | 37.6 | 33.2 | Dose-dependent effect
Cn1nc(C(C)(C)C)cc1NC(=O)Nc1ccc(OCc2ccccc2)cc1 | 97.3 | 92.9 | – | –
Cn1nc(-c2ccccc2)cc1NC(=O)Nc1ccc(OCc2ccccc2)cc1 | 3 | 72 | – | –
CCc1cc(=O)[nH]c(-n2nc(-c3ccccc3)cc2NC(=O)Nc2ccc(C(C)(C)C)cc2)n1 | 1.88 | 55.2 | 13.8 | –
COc1ccc(NC(=O)Nc2nc3cc(C)c(C)cc3s2)cc1OC | 76.6 | 94.6 | – | –
Cc1cc(=O)[nH]c(-n2nc(-c3ccccc3)cc2NC(=O)Nc2ccc3c(c2)OCO3)n1 | 3.99 | 57.7 | 30.4 | –
COc1ccccc1NC(=O)Nc1nc(-c2ccc(OC)c(OC)c2)cs1 | 80 | 88.1 | – | –
COc1ccccc1NC(=O)Nc1cc(C(C)(C)C)nn1-c1ccccc1 | 53.2 | 99.6 | – | –

Results, then the compound that gave them:

residual activity [1] [%] | residual activity [2] [%] | IC50 [3] [µM] | inhibition [4] | SMILES
94.8 | 93.9 | – | – | Cc1ccc(-c2nc(NC(=O)Nc3ccc(F)cc3)sc2C)cc1Cl
13 | 39.8 | 92.6 | Dose-dependent effect | COc1ccc(NC(=O)Nc2nc(-c3ccc(C)c(Cl)c3)c(C)s2)cc1OC1CCCC1
0.02 | 69.3 | – | – | O=C(Nc1cccc(Cl)c1)Nc1nc2c(ccc3ccccc32)s1
41.4 | 65.6 | – | – | Cc1ccc(-c2nc(NC(=O)Nc3ccccc3)sc2C)cc1Cl
95.8 | 91.5 | – | – | Cc1sc(NC(=O)Nc2ccc(Cl)cc2)nc1-c1ccccc1
10.3 | 84.7 | – | – | COc1ccc(NC(=O)Nc2nc3c(ccc4ccccc43)s2)cc1
45.6 | 88.5 | – | – | Cc1ccc(-c2nc(NC(=O)Nc3cccc(Cl)c3)sc2C)cc1
20.6 | 91.8 | – | – | Cc1ccc(-c2nc(NC(=O)Nc3ccc(Cl)cc3)sc2C)cc1
68.7 | 92 | – | – | COc1ccc(NC(=O)Nc2nc(-c3ccc(OC)c(OC)c3)cs2)cc1
43.9 | 76.7 | – | – | CCOc1ccc(NC(=O)Nc2nc(-c3ccccc3)c(C)s2)cc1
95.4 | 97.7 | – | – | COc1ccc(NC(=O)Nc2cc(C)nn2-c2ccc(F)cc2)cc1
0.68 | 79.3 | – | – | Cc1ccc(S(=O)(=O)NC(=O)Nc2nc(-c3ccc(C)c(Cl)c3)c(C)s2)cc1
31.6 | 64.8 | – | – | Cc1ccc(-c2nc(NC(=O)Nc3ccc(OCc4ccccc4)cc3)sc2C)cc1Cl
